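Cells were grown in 96-well plates and exposed to each compound for 48 hours at five concentrations; endpoints were interpolated linearly between bracketing concentrations, or set to the highest concentration if not reached. At the GI50, growth is halved.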 Activity calls are given as the source filed them. Rule as the data show it: active = GI50 up to about 1.1 µM and inactive = higher.
What was measured:
Assay in all cases: inhibition of tumour cell growth, NCI panel, 48 h
OVCAR-5 = tested on: OVCAR-5
DLD-1 = tested on: DLD-1
SF-295 = tested on: SF-295
HCT-116 = tested on: HCT-116
COLO 205 = tested on: COLO 205
NCI-H23 = tested on: NCI-H23
TK-10 = tested on: TK-10
CAKI-1 = tested on: CAKI-1
K562 = tested on: K562
HCC 2998 = tested on: HCC 2998
OVCAR-4 = tested on: OVCAR-4
A498 = tested on: A498
SNB-19 = tested on: SNB-19
SF-539 = tested on: SF-539
Malme-3M = tested on: Malme-3M
U-251 = tested on: U-251
HL-60 = tested on: HL-60
M14 = tested on: M14
M19-MEL = tested on: M19-MEL
UO-31 = tested on: UO-31
SF-268 = tested on: SF-268
UACC-62 = tested on: UACC-62
HOP-62 = tested on: HOP-62
MOLT-4 = tested on: MOLT-4
SN12C = tested on: SN12C
NCI-H226 = tested on: NCI-H226
HOP-18 = tested on: HOP-18
NCI-H460 = tested on: NCI-H460
LXFL 529 = tested on: LXFL 529
SR = tested on: SR
OVCAR-8 = tested on: OVCAR-8
786-0 = tested on: 786-0
LOX IMVI = tested on: LOX IMVI
HT-29 = tested on: HT-29
SW-620 = tested on: SW-620
RXF 393 = tested on: RXF 393
RXF 631 = tested on: RXF 631
SK-OV-3 = tested on: SK-OV-3
SNB-78 = tested on: SNB-78
RPMI-8226 = tested on: RPMI-8226
NCI-H522 = tested on: NCI-H522
HOP-92 = tested on: HOP-92
HCT-15 = tested on: HCT-15
SK-MEL-2 = tested on: SK-MEL-2
DMS-273 = tested on: DMS-273
KM12 = tested on: KM12
DMS-114 = tested on: DMS-114
UACC-257 = tested on: UACC-257
IGROV-1 = tested on: IGROV-1
SK-MEL-5 = tested on: SK-MEL-5
EKVX = tested on: EKVX
A549 = tested on: A549
CCRF-CEM = tested on: CCRF-CEM
ACHN = tested on: ACHN
SNB-75 = tested on: SNB-75
OVCAR-3 = tested on: OVCAR-3
KM-20L2 = tested on: KM-20L2
SK-MEL-28 = tested on: SK-MEL-28
XF498 = tested on: XF498

Fc1cccc(C2SCc3nc4ccccc4n32)c1F (stereo unspecified)
GI50 (OVCAR-5): > 100 µM (inactive) | GI50 (DLD-1): > 100 µM (inactive) | GI50 (SF-295): 30.8 µM (inactive) | GI50 (HCT-116): 48.5 µM (inactive) | GI50 (COLO 205): 80.5 µM (inactive) | GI50 (NCI-H23): 49.7 µM (inactive) | GI50 (TK-10): 42 µM (inactive) | GI50 (CAKI-1): 59.4 µM (inactive) | GI50 (K562): 33 µM (inactive) | GI50 (HCC 2998): > 100 µM (inactive) | GI50 (OVCAR-4): 42.1 µM (inactive) | GI50 (A498): 42.2 µM (inactive) | GI50 (SNB-19): > 100 µM (inactive) | GI50 (SF-539): > 100 µM (inactive) | GI50 (Malme-3M): 38 µM (inactive) | GI50 (U-251): 82.8 µM (inactive) | GI50 (HL-60): 16.1 µM (inactive) | GI50 (M14): 62.4 µM (inactive) | GI50 (M19-MEL): 43.9 µM (inactive) | GI50 (UO-31): 41.9 µM (inactive) | GI50 (SF-268): 98.4 µM (inactive) | GI50 (UACC-62): 63.5 µM (inactive) | GI50 (HOP-62): > 100 µM (inactive) | GI50 (MOLT-4): 21.1 µM (inactive) | GI50 (SN12C): 89.7 µM (inactive) | GI50 (NCI-H226): 41.6 µM (inactive) | GI50 (HOP-18): 56.1 µM (inactive) | GI50 (NCI-H460): 51.5 µM (inactive) | GI50 (LXFL 529): 40.9 µM (inactive) | GI50 (SR): 28.4 µM (inactive) | GI50 (OVCAR-8): 69.3 µM (inactive) | GI50 (786-0): 92.9 µM (inactive) | GI50 (LOX IMVI): 84.3 µM (inactive) | GI50 (HT-29): 79.4 µM (inactive) | GI50 (SW-620): > 100 µM (inactive) | GI50 (RXF 393): 54.2 µM (inactive) | GI50 (RXF 631): 16.4 µM (inactive) | GI50 (SK-OV-3): > 100 µM (inactive) | GI50 (SNB-78): 32.6 µM (inactive) | GI50 (RPMI-8226): 31.1 µM (inactive) | GI50 (NCI-H522): 37.2 µM (inactive) | GI50 (HOP-92): 23 µM (inactive) | GI50 (HCT-15): 59.3 µM | GI50 (SK-MEL-2): 7.52 µM (inactive) | GI50 (DMS-273): 19.4 µM (inactive) | GI50 (KM12): 66.1 µM (inactive) | GI50 (DMS-114): 23.8 µM (inactive) | GI50 (UACC-257): 32.7 µM (inactive) | GI50 (IGROV-1): 73.8 µM (inactive) | GI50 (SK-MEL-5): 21.6 µM (inactive) | GI50 (EKVX): 36.6 µM (inactive) | GI50 (A549): 69 µM (inactive) | GI50 (CCRF-CEM): 42 µM (inactive) | GI50 (ACHN): 48.5 µM (inactive) | GI50 (SNB-75): > 100 µM (inactive) | GI50 (OVCAR-3): 29.1 µM (inactive) | GI50 (KM-20L2): > 100 µM (inactive)

CSc1nc2c(nc(N)n2C2OCC(O)C(O)C2O)c(=O)n1C (stereo unspecified)
GI50 (DLD-1): > 100 µM (inactive) | GI50 (SF-295): > 100 µM (inactive) | GI50 (HCT-116): > 100 µM (inactive) | GI50 (COLO 205): > 100 µM (inactive) | GI50 (NCI-H23): > 100 µM (inactive) | GI50 (TK-10): > 100 µM (inactive) | GI50 (SK-MEL-28): > 100 µM (inactive) | GI50 (CAKI-1): > 100 µM (inactive) | GI50 (K562): > 100 µM (inactive) | GI50 (HCC 2998): > 100 µM (inactive) | GI50 (OVCAR-4): > 100 µM (inactive) | GI50 (A498): > 100 µM (inactive) | GI50 (SNB-19): > 100 µM (inactive) | GI50 (SF-539): > 100 µM (inactive) | GI50 (Malme-3M): > 100 µM (inactive) | GI50 (U-251): > 100 µM (inactive) | GI50 (HL-60): > 100 µM (inactive) | GI50 (M14): > 100 µM (inactive) | GI50 (M19-MEL): > 100 µM (inactive) | GI50 (UO-31): > 100 µM (inactive) | GI50 (SF-268): > 100 µM (inactive) | GI50 (UACC-62): > 100 µM (inactive) | GI50 (HOP-62): > 100 µM (inactive) | GI50 (MOLT-4): > 100 µM (inactive) | GI50 (SN12C): > 100 µM (inactive) | GI50 (NCI-H226): > 100 µM (inactive) | GI50 (HOP-18): > 100 µM (inactive) | GI50 (NCI-H460): > 100 µM (inactive) | GI50 (LXFL 529): > 100 µM (inactive) | GI50 (SR): > 100 µM (inactive) | GI50 (OVCAR-8): > 100 µM (inactive) | GI50 (786-0): > 100 µM (inactive) | GI50 (LOX IMVI): > 100 µM (inactive) | GI50 (HT-29): > 100 µM (inactive) | GI50 (XF498): > 100 µM (inactive) | GI50 (SW-620): > 100 µM (inactive) | GI50 (RXF 393): > 100 µM (inactive) | GI50 (RXF 631): > 100 µM (inactive) | GI50 (SK-OV-3): > 100 µM (inactive) | GI50 (SNB-78): > 100 µM (inactive) | GI50 (NCI-H522): > 100 µM (inactive) | GI50 (HOP-92): > 100 µM (inactive) | GI50 (KM12): > 100 µM (inactive) | GI50 (DMS-114): > 100 µM (inactive) | GI50 (UACC-257): > 100 µM (inactive) | GI50 (IGROV-1): > 100 µM (inactive) | GI50 (SK-MEL-5): > 100 µM (inactive) | GI50 (EKVX): > 100 µM (inactive) | GI50 (A549): > 100 µM (inactive) | GI50 (CCRF-CEM): > 100 µM (inactive) | GI50 (ACHN): > 100 µM (inactive) | GI50 (SNB-75): > 100 µM (inactive) | GI50 (OVCAR-3): > 100 µM (inactive) | GI50 (KM-20L2): > 100 µM (inactive)

O=C(O)CCNCCCNCCC(=O)O
GI50 (OVCAR-5): > 100 µM (inactive) | GI50 (DLD-1): > 100 µM (inactive) | GI50 (SF-295): > 100 µM (inactive) | GI50 (HCT-116): > 100 µM (inactive) | GI50 (COLO 205): > 100 µM (inactive) | GI50 (NCI-H23): > 100 µM (inactive) | GI50 (TK-10): > 100 µM (inactive) | GI50 (SK-MEL-28): > 100 µM (inactive) | GI50 (CAKI-1): > 100 µM (inactive) | GI50 (K562): > 100 µM (inactive) | GI50 (HCC 2998): > 100 µM (inactive) | GI50 (OVCAR-4): > 100 µM (inactive) | GI50 (A498): > 100 µM (inactive) | GI50 (SNB-19): > 100 µM (inactive) | GI50 (SF-539): > 100 µM (inactive) | GI50 (Malme-3M): > 100 µM (inactive) | GI50 (U-251): > 100 µM (inactive) | GI50 (HL-60): > 100 µM (inactive) | GI50 (M14): > 100 µM (inactive) | GI50 (M19-MEL): > 100 µM (inactive) | GI50 (SF-268): > 100 µM (inactive) | GI50 (UACC-62): > 100 µM (inactive) | GI50 (HOP-62): > 100 µM (inactive) | GI50 (MOLT-4): > 100 µM (inactive) | GI50 (SN12C): > 100 µM (inactive) | GI50 (NCI-H226): > 100 µM (inactive) | GI50 (HOP-18): > 100 µM (inactive) | GI50 (NCI-H460): > 100 µM (inactive) | GI50 (LXFL 529): > 100 µM (inactive) | GI50 (OVCAR-8): > 100 µM (inactive) | GI50 (786-0): > 100 µM (inactive) | GI50 (LOX IMVI): > 100 µM (inactive) | GI50 (HT-29): > 100 µM (inactive) | GI50 (XF498): > 100 µM (inactive) | GI50 (SW-620): > 100 µM (inactive) | GI50 (RXF 393): > 100 µM (inactive) | GI50 (RXF 631): > 100 µM (inactive) | GI50 (SK-OV-3): > 100 µM (inactive) | GI50 (RPMI-8226): > 100 µM (inactive) | GI50 (NCI-H522): > 100 µM (inactive) | GI50 (HOP-92): > 100 µM (inactive) | GI50 (HCT-15): > 100 µM | GI50 (SK-MEL-2): > 100 µM (inactive) | GI50 (DMS-273): > 100 µM (inactive) | GI50 (KM12): > 100 µM (inactive) | GI50 (DMS-114): > 100 µM (inactive) | GI50 (IGROV-1): > 100 µM (inactive) | GI50 (SK-MEL-5): > 100 µM (inactive) | GI50 (EKVX): > 100 µM (inactive) | GI50 (A549): > 100 µM (inactive) | GI50 (CCRF-CEM): > 100 µM (inactive) | GI50 (ACHN): > 100 µM (inactive) | GI50 (SNB-75): 66.8 µM (inactive) | GI50 (OVCAR-3): > 100 µM (inactive) | GI50 (KM-20L2): > 100 µM (inactive)

From ChEMBL document CHEMBL1201862, “PubChem BioAssay data set” (2004)
